Structures are written as SMILES. Read-outs that look alike come from different tables or passages of the source.

The conditions of data set [1]: single oral dose, co-administration of a high fat meal; cited from earlier work.
The conditions of data set [2]: cited from earlier work.
Data set [3] is described as follows: Early RBV plasma exposure (AUC0-4h) after a 600 mg first dose of RBV. Type of data set: in vivo, human (patients with chronic hepatitis C). The settings on record: for AUC(0-t): human, plasma, oral, 600 mg. The method, then:
Patients were divided into two groups according to their HIV status. […] All patients gave their informed consent before they entered the study.
The plasma AUC was determined for each patient before the antiviral treatment or at the first day.
Results of AUC and normalized AUC were analyzed according to the two groups defined by the HIV status.
All quantitative variables were expressed as median and range. Comparisons of data were made using the non-parametric Mann–Whitney test. Statistical analysis was performed using the Statistica® software package (StatSoft Inc). […] A p value below 0.05 was considered as statistically significant.

In the case of `NC(=O)c1ncn([C@@H]2O[C@H](CO)[C@@H](O)[C@H]2O)n1` [RBV, ribavirin], in data set [1], the “AUCtf (from time zero to the time of the final quantifiable sample)” value is reported as “increased”. Also, the Cmax entry in data set [1] was “increased”. Besides, the “patients with AUC0-4h below the 1755 μg.h/L threshold” value in data set [2] (historical study, monoinfected HCV genotype 1 patients) was 58%. Moreover, the “threshold for RBV plasma AUC from 0 to 4 h post-dose discriminating SVR from non-response” value in data set [2] (single dose of 600 mg, HCV monoinfected patients) is 1755 µg·h/L. The “Patients with AUC0-4h <1755” value in data set [3] (HCV monoinfected patients (n = 63), threshold 1755 μg.h/L) was determined as 32%. Moreover, the “patients with AUC0-4h above the threshold of 1755 μg.h/L” value in data set [3] (HIV-HCV coinfected patients) was determined as 39%. For the same molecule, the AUC(0-t) in data set [3] (HCV monoinfected patients (n = 63), single 600 mg RBV dose, median (range), read-out: AUC0-4h) was 2030 ng·h/mL; in data set [3] (HCV monoinfected, HCV treatment naive patients, read-out: median AUC0-4h) it was 2430 ng·h/mL; in data set [3] (HCV monoinfected, non-responders, read-out: median AUC0-4h), 1870 ng·h/mL; in data set [3] (HCV monoinfected, relapsers, read-out: median AUC0-4h) it was 2020 ng·h/mL; in data set [3] (HIV-HCV coinfected patients (n = 23), single 600 mg RBV dose, median (range), read-out: AUC0-4h), 1470 ng·h/mL; in data set [3] (HIV-HCV coinfected patients with CD4 < 500/mm^3, median (range), read-out: AUC0-4h) it was 1270 ng·h/mL. Besides, the AUC(0-t) was 1840 ng·h/mL in data set [3] (HIV-HCV coinfected patients with CD4 ≥ 500/mm^3, median (range), read-out: AUC0-4h); 2030 ng·h/mL in data set [3] (RBV-AUC 0-4h (median), HCV monoinfected patients, abstract); 1470 ng·h/mL in data set [3] (RBV-AUC 0-4h (median), HIV-HCV coinfected patients, abstract); less than 1760 ng·h/mL in data set [3] (all three HIV-HCV coinfected patients with detectable HIV RNA, read-out: AUC0-4h); 1880 ng·h/mL in data set [3] (male, male HCV monoinfected patients, single 600 mg dose, median (range), read-out: Men AUC0-4h); 1410 ng·h/mL in data set [3] (male, male HIV-HCV coinfected patients, single 600 mg dose, median (range), read-out: Men AUC0-4h). Moreover, the “Men with AUC0-4h <1755” value in data set [3] (male HCV monoinfected patients) is recorded as 43%; in data set [3] (male HIV-HCV coinfected patients), 65%.

These data come from publication PMC3994577 (BMC Infectious Diseases, 2014).
